Reference: US4552843A, “Process for producing an acidic polycyclic ether antibiotic by cultivation of a novel strain of Streptomyces endus subspecies aureus” (Pfizer Inc., priority 1984, dated 1985)

Experiments:
rumen fluid = assay: in vitro rumen technique, propionic acid production; design: species or system calf; details: for increase in propionic acid: comparison with Salinomycin; for increase in production of propionic acid over control: comparison with Monensin
Description: The value of animal feeds generally has been determined directly by feeding the animal. British Pat. No. 1,197,826 details an in vitro rumen technique whereby the changes occurring in feeds brought about by microorganisms are measured more readily and with great accuracy in the evaluation of animal feeds. This technique involves the use of an apparatus in which the digestive processes of the animals are conducted and studied in vitro. The animal feeds, rumen inoculum and various growth promotants are introduced into and withdrawn from a laboratory unit under carefully controlled conditions and the changes taken place are studied critically and progressively during the consumption of the feed by the microorganisms. […] The change in propionic acid content is expressed as percent of the propionic acid content found in the control rumen fluid. Long term in vivo feeding studies are used to show a reliable correlation between propionic acid increase in the rumen fluid and improved animal performance.
Rumen fluid is collected from a fistulated calf which is fed on a commercial fattening ration plus hay. The rumen fluid is immediately filtered through cheese cloth, and 10 ml added to a 50 ml conical flask containing 400 mg of standard substrate (68% corn starch +17% cellulose +15% extracted soybean meal), 10 ml of a pH 6.8 buffer and the test compound. The flasks are gassed with oxygen free nitrogen for about two minutes, and incubated in a shaking water bath at 39° C. for about 16 hours. All tests are conducted in triplicate.
After incubation, 5 ml of the sample is mixed with 1 ml of 25% metaphosphoric acid. After 10 minutes 0.25 ml of formic acid is added and the mixture centrifuged at 1500 RPM for 10 minutes. Samples are then analyzed by gas-liquid chromatography by the method of D. W. Kellog, J. Dairy Science, 52, 1690 (1969). Peak heights for acetic, propionic and butyric acids are determined for samples from untreated and treated incubation flasks.

[1] = tested on: Gram-positive microorganisms; assay: inhibitory action against growth of Gram-positive microorganisms; assay type: cell-based; details: in vitro
Description: In Table I, below, the results of in vitro MIC tests are summarized. For this test each organism is inoculated in a series of test tubes of CP-63,517 to determine the minimal concentration of the antibiotic in mcg/ml which inhibits the growth of the organism over a period of 24 hours (MIC).

coccidial infections = assay: activity against coccidial infections in poultry; details: in vivo
Description: Efficacy data for Antibiotic CP-63,517 and its salts against coccidial infections in chickens was obtained in the following fashion. Groups of 3-5 ten-day old SPF white leghorn cockerel chicks were fed a mash diet containing Antibiotic CP-63,517, its sodium and/or potassium salt, or the known agents Monensin or Stenorol uniformly dispersed therein. After being on this ration for 24 hours each chick was inoculated per os with oocysts of the particular species of Eimeria being tested. Other groups of 3-5 ten-day old chicks were fed a similar mash diet free of any test compound. They were also infected after 24 hours and served as infected controls. Yet another group of 3-5 ten-day old chicks were fed the mash diet free of any test compound and were not infected with coccidia. These served as normal controls. The results of treatment were evaluated after five days in the case of E. acervulina, and six days for other challenges.

With `COC1CCC(OC2CC3(CC(O)C(C)C(C(C)C=C(C)C(=O)C(C)CC(C)C(=O)O)O3)OC2(C)C2CCC(C)C3(OC(C4OC(O)(CO)C(C)CC4C)CC3C)O2)OC1C` (stereo not drawn) [CP-63,517] the “increase in propionic acid” value (rumen fluid; 5 μg/ml) was “about 66%”, the “increase in propionic acid” value (rumen fluid; 20 μg/ml) was “about 86%” and the “increase in production of propionic acid over control” value (rumen fluid; 10 micrograms per milliliter (10 μg/ml)) was 95%. For the same compound, the “increase in production of propionic acid over control” value (rumen fluid; 20 micrograms per milliliter) was 96%, the “antibacterial / growth inhibitory activity” value [1] was “exhibits inhibitory action against the growth of a number of Gram-positive microorganisms” and the “activity against coccidial infections in poultry” value (coccidial infections) was “excellent activity”.
